This test concerns the target T1, human CCR6 (Homo sapiens, UniProt P51684).
T1 construct: expressed in transfected cells; host or cells: Ba/F3 cells (mouse pro-B line)
T1 sequence (P51684 1-374): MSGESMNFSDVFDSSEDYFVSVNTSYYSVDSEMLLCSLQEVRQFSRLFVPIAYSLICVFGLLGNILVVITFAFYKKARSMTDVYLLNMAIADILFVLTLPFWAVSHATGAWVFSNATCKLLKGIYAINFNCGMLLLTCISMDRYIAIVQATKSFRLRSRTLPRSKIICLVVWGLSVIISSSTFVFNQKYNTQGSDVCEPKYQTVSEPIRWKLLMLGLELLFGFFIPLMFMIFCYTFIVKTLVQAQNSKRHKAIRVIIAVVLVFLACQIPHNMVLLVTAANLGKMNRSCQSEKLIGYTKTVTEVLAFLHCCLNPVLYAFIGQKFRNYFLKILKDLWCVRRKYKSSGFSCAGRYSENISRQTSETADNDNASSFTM
Nature of the test: Migration assay (chemotaxis, ChemoTX). Type of test: cell-based. The following applies: hCCR6-transfected Ba/F3 cells in human serum, migration to recombinant human CCL20 10 nM, 37° C. 45 minutes; read-out: Potency (IC50 value in the migration assay). A digest of the protocol:
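Ba/F3 cells transfected with human CCR6 and butyrate-primed for 24 h were suspended at 4 million/ml in human serum with compound, serially diluted from a 1 μM final top concentration. Cells migrated through a 5-μm polycarbonate membrane toward 10 nM human CCL20 for 45 min at 37 °C. Migrated cells were quantified by CyQUANT fluorescence.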
With `Cc1nc2[nH]cc(C#N)c2cc1-c1ccc(S(=O)(=O)N2CC[C@@H](Nc3ccc(C(F)(F)F)cn3)[C@@H](O)C2)cc1` [Example 46, 5-(4-(((3S,4R)-3-hydroxy-4-((5-(trifluoromethyl)pyridin-2-yl)amino)piperidin-1-yl)sulfonyl)phenyl)-6-methyl-1H-pyrrolo[2,3-b]pyridine-3-carbonitrile], the IC50 was less than 1 nM.

As to `O=c1[nH]c2ccc(-c3ccc(S(=O)(=O)N4CC[C@@H](Nc5ccc(C(F)(F)F)cn5)[C@@H](O)C4)cc3)cc2[nH]1` [Example 47, 5-(4-(((3S,4R)-3-hydroxy-4-((5-(trifluoromethyl)pyridin-2-yl)amino)piperidin-1-yl)sulfonyl)phenyl)-1,3-dihydro-2H-benzo[d]imidazol-2-one], the IC50 is less than 1 nM.

As for `O=C1NCc2ncc(-c3ccc(S(=O)(=O)N4CC[C@@H](Nc5ccc(C(F)(F)F)cn5)[C@@H](O)C4)cc3)cc21` [Example 48, 3-(4-(((3S,4R)-3-hydroxy-4-((5-(trifluoromethyl)pyridin-2-yl)amino)piperidin-1-yl)sulfonyl)phenyl)-6,7-dihydro-5H-pyrrolo[3,4-b]pyridin-5-one], the IC50 was less than 1 nM.

In the case of `Cn1nc(N)c2cc(-c3ccc(S(=O)(=O)N4CC[C@@H](Nc5ccc(C(F)(F)F)cn5)[C@@H](O)C4)cc3)ccc21` [Example 49, (3S,4R)-1-((4-(3-amino-1-methyl-1H-indazol-5-yl)phenyl)sulfonyl)-4-((5-(trifluoromethyl)pyridin-2-yl)amino)piperidin-3-ol], the IC50 is less than 1 nM.

For the molecule `CNC(=O)c1cc(-c2ccc(S(=O)(=O)N3CC[C@@H](Nc4ccc(C(F)(F)F)cn4)[C@@H](O)C3)cc2)ccn1` [Example 50, 4-(4-(((3S,4R)-3-hydroxy-4-((5-(trifluoromethyl)pyridin-2-yl)amino)piperidin-1-yl)sulfonyl)phenyl)-N-methylpicolinamide], the IC50 was less than 1 nM.

Consider `NC(=O)c1cc(-c2ccc(S(=O)(=O)N3CC[C@@H](Nc4ccc(C(F)(F)F)cn4)[C@@H](O)C3)cc2)cnc1O` [Example 51, 2-Hydroxy-5-(4-(((3S,4R)-3-hydroxy-4-((5-(trifluoromethyl)pyridin-2-yl)amino)piperidin-1-yl)sulfonyl)phenyl)nicotinamide], for which the IC50 is less than 1 nM.

Turning to `O=S(=O)(c1ccc(-c2ccnc(-c3ncc[nH]3)c2)cc1)N1CC[C@@H](Nc2ccc(C(F)(F)F)cn2)[C@@H](O)C1` [Example 52, (3S,4R)-1-((4-(2-(1H-imidazol-2-yl)pyridin-4-yl)phenyl)sulfonyl)-4-((5-(trifluoromethyl)pyridin-2-yl)amino)piperidin-3-ol], the IC50 was less than 1 nM.

On to `NC(=O)c1cc(-c2ccc(S(=O)(=O)N3CC[C@@H](Nc4ccc(C(F)(F)F)cn4)[C@@H](O)C3)cc2)cnc1N` [Example 53, 2-Amino-5-(4-(((3S,4R)-3-hydroxy-4-((5-(trifluoromethyl)pyridin-2-yl)amino)piperidin-1-yl)sulfonyl)phenyl)nicotinamide], for which the IC50 is less than 1 nM.

`O=c1[nH]c2cc(-c3ccc(S(=O)(=O)N4CC[C@@H](Nc5ccc(C(F)(F)F)cn5)[C@@H](O)C4)cc3)cnc2[nH]1` [Example 54, 6-(4-(((3S,4R)-3-hydroxy-4-((5-(trifluoromethyl)pyridin-2-yl)amino)piperidin-1-yl)sulfonyl)phenyl)-1,3-dihydro-2H-imidazo[4,5-b]pyridin-2-one]: the IC50 is less than 1 nM.

As to `Nc1n[nH]c2cc(-c3ccc(S(=O)(=O)N4CC[C@@H](Nc5ccc(C(F)(F)F)cn5)[C@@H](O)C4)cc3)ccc12` [Example 55, (3S,4R)-1-((4-(3-amino-1H-indazol-6-yl)phenyl)sulfonyl)-4-((5-(trifluoromethyl)pyridin-2-yl)amino)piperidin-3-ol], the IC50 is less than 1 nM.

Turning to `Cc1c(-c2ccc(S(=O)(=O)N3CC[C@@H](Nc4ccc(C(F)(F)F)cn4)[C@@H](O)C3)cc2)cnc2[nH]cc(C#N)c12` [Example 56, 5-(4-(((3S,4R)-3-hydroxy-4-((5-(trifluoromethyl)pyridin-2-yl)amino)piperidin-1-yl)sulfonyl)phenyl)-4-methyl-1H-pyrrolo[2,3-b]pyridine-3-carbonitrile], the IC50 is less than 1 nM.

As to `N#Cc1cc(-c2ccc(S(=O)(=O)N3CC[C@@H](Nc4ccc(C(F)(F)F)cn4)[C@@H](O)C3)cc2)ccn1` [Example 57, 4-(4-(((3S,4R)-3-hydroxy-4-((5-(trifluoromethyl)pyridin-2-yl)amino)piperidin-1-yl)sulfonyl)phenyl)picolinonitrile], the IC50 was less than 1 nM.

Turning to `COc1c(-c2ccc(S(=O)(=O)N3CC[C@@H](Nc4ccc(C(F)(F)F)cn4)[C@@H](O)C3)cc2)cnc2[nH]ccc12` [Example 58, (3S,4R)-1-((4-(4-methoxy-1H-pyrrolo[2,3-b]pyridin-5-yl)phenyl)sulfonyl)-4-((5-(trifluoromethyl)pyridin-2-yl)amino)piperidin-3-ol], the IC50 was less than 1 nM.

Consider `Cc1c(-c2ccc(S(=O)(=O)N3CC[C@@H](Nc4ccc(C(F)(F)F)cn4)[C@@H](O)C3)cc2)cnc2[nH]ccc12` [Example 60, (3S,4R)-1-((4-(4-methyl-1H-pyrrolo[2,3-b]pyridin-5-yl)phenyl)sulfonyl)-4-((5-(trifluoromethyl)pyridin-2-yl)amino)piperidin-3-ol], for which the IC50 is less than 1 nM.

On to `N#Cc1c[nH]c2ncc(-c3ccc(S(=O)(=O)N4CC[C@@H](Nc5ccc(C(F)(F)F)cn5)[C@@H](O)C4)cc3)cc12` [Example 61, 5-(4-(((3S,4R)-3-hydroxy-4-((5-(trifluoromethyl)pyridin-2-yl)amino)piperidin-1-yl)sulfonyl)phenyl)-1H-pyrrolo[2,3-b]pyridine-3-carbonitrile], for which the IC50 was less than 1 nM.

Take `Cc1c(-c2ccc(S(=O)(=O)N3CC[C@@H](Nc4ccc(C(F)(F)F)cn4)[C@@H](O)C3)cc2)c(C)[n+]([O-])c2[nH]ccc12` [Example 62, 5-(4-(((3S,4R)-3-hydroxy-4-((5-(trifluoromethyl)pyridin-2-yl)amino)piperidin-1-yl)sulfonyl)phenyl)-4,6-dimethyl-1H-pyrrolo[2,3-b]pyridine 7-oxide]: the IC50 is less than 1 nM.

Consider `Cc1nc2[nH]cc(C#N)c2c(C)c1-c1ccc(S(=O)(=O)N2CC[C@@H](Nc3ccc(C(F)(F)F)cn3)[C@@H](O)C2)cc1` [Example 63, 5-(4-(((3S,4R)-3-hydroxy-4-((5-(trifluoromethyl)pyridin-2-yl)amino)piperidin-1-yl)sulfonyl)phenyl)-4,6-dimethyl-1H-pyrrolo[2,3-b]pyridine-3-carbonitrile], for which the IC50 was less than 1 nM.

(Values after patent US12018016B2, “Aryl sulfonyl (hydroxy) piperidines as CCR6 inhibitors” (CHEMOCENTRYX, INC., priority 2021, dated 2024).)
